According to patent US20110039824A1, “1,2,3,6-tetrahydroazepino[4,5-b]indole-5-carboxylate nuclear receptor inhibitors” (Wyeth, priority 2008, published 2011):

Columns and labels:
[1] = biological target: T1, Progesterone Receptor (PR) (Homo sapiens, UniProt P06401); assay: Progesterone receptor (PR) antagonism, alkaline phosphatase assay in T47D cells; assay type: cell-based; settings: percent inhibition @ 10 μM vs 1 nM progesterone
T1 sequence (P06401 679-933 limits assumed): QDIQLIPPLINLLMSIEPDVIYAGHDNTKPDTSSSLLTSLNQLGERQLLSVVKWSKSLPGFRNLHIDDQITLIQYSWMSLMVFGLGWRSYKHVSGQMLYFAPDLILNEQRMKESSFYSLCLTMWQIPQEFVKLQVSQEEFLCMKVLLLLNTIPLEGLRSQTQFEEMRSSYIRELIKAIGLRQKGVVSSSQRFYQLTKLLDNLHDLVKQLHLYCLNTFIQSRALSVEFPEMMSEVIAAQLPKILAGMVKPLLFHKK
Experimental: DMEM:F12 (1:1) (GIBCO, BRL) supplemented with 5% (v/v) charcoal stripped fetal bovine serum (not heat-inactivated), 100 U/ml penicillin, 100 jig/ml streptomycin, and 2 mM GlutaMax (GIBCO, BRL).
I. 0.1M Tris-HCl, pH 9.8, containing 0.2% Triton X-100 II. 0.1 M Tris-HCl, pH 9.8, containing 4 mM p-nitrophenyl phosphate (Sigma).
Frozen T47D cells were thawed in a 37° C. water bath and diluted to 280,000 cells/ml in culture medium. To each well in a 96-well plate (Falcon, Becton Dickinson Labware), 180 μl of diluted cell suspension was added. Twenty μl of reference or test compounds diluted in the culture medium were then added to each well. When testing for progestin antagonist activity, reference antiprogestins or test compounds were added in the presence of 1 nM progesterone. The cells were incubated at 37° C. in a 5% CO2/humidified atmosphere for 24 hours.
At the end of treatment, the medium was removed from the plate. Fifty μl of assay buffer I was added to each well. The plates were shaken in a titer plate shaker for […]. Then 150 μl of assay buffer II was added to each well. Optical density measurements were taken at 5 min intervals for 30 min at a test wavelength of 405 nm.

[2] = Solubility in 2% Tween/0.5% MC aq.; assay type: physicochemical
PAMPA permeability = assay type: in vitro ADME
Caco2 = Caco2 permeability; assay type: in vitro ADME
LDLR KO Mouse Model = assay: Mouse serum triglyceride (TG) and cholesterol levels in LDLR -/- mice; assay type: in vivo; settings: daily oral gavage 7 days
Experimental: Eight-week old LDLR −/−mice were purchased from Jackson Laboratories and maintained on a chow diet. Some LDLR −/−mice were fed a western diet (AlN-76A; Purina Test Diets) as indicated. All mice were treated by daily oral gavage with vehicle or varying concentrations of compound for 7 days. On the last day after the final dose, the food was removed to allow a 3 hr fast and serum was harvested for analysis. Serum TG and cholesterol levels were determined using a Roche 912 clinical chemistry analyzer and expressed as mg/dL.

PR Antagonism (Alk. Phos. Assay @ 10 μM) [1] [%]	2% Tween/0.5% MC aq. sol. (mg/mL) [2] [mg/mL]	2% Tween/0.5% MC aq. sol. (μM) [2] [µM]	PAMPA Permeability (Pe × 10^−6) (PAMPA permeability)	Transport mechanism (Caco2)	Caco2 Permeability (Pe × 10^−6) A-B (Caco2; A-B)	Caco2 Permeability (Pe × 10^−6) B-A (Caco2; B-A)	SMILES	Reduction of Total Cholesterol in a LDLR KO Mouse Model (Female) @ 10 mpk (LDLR KO Mouse Model) [%]	Reduction of Triglycerides in a LDLR KO Mouse Model (Female) @ 10 mpk (LDLR KO Mouse Model) [%]	Reduction of Total Cholesterol in a LDLR KO Mouse Model (Male) @ 10 mpk (LDLR KO Mouse Model) [%]	Reduction of Triglycerides in a LDLR KO Mouse Model (Male) @ 10 mpk (LDLR KO Mouse Model) [%]
95	0.20	355.0	0.66 × 10^−6	passive	0.8 × 10^−6	0.8 × 10^−6	CC(C)OC(=O)C1=CN(C(=O)c2ccc(OCCCN3CCOCC3)cc2)CC(C)(C)c2c1[nH]c1cc(F)ccc21 [Example 30, Isopropyl 8-fluoro-1,1-dimethyl-3-[4-(3-morpholin-4-ylpropoxy)benzoyl]-1,2,3,6-tetrahydroazepino[4,5-b]indole-5-carboxylate]	60	65	74	78
90	0.19	332.0	0 × 10^−6	passive	–	–	CC(C)OC(=O)C1=CN(C(=O)c2ccc(OCCCN3CCOCC3)cc2)CC(C)(C)c2c1[nH]c1ccccc21 [Reference Compound 1, 1-methylethyl-1,1-dimethyl-3-({4-[(3-morpholin-4-ylpropyl)oxy]phenyl}carbonyl)-1,2,3,6-tetrahydroazepino[4,5-b]indole-5-carboxylate]	40	25	49	59
